Data set [1] concerns the target BTK wild-type kinase (Homo sapiens (Human), UniProt Q06187). As to the kind of experiment: BTK kinase activity inhibition test in vitro (Caliper EZ Reader). In kind it is biochemical. Here is the method:
In the tests on the activity of inhibiting BTK and HER2 kinase in vitro in the examples of the present disclosure, powder of the compound was dissolved in 100% DMSO to prepare a 10 mM stock solution and stored at-20° C. in the dark. […] In addition, the compounds were subjected to experiments such as liver microsome metabolic stability, rat PK, rat brain penetration rate, and drug efficacy model in the examples of the present disclosure.
Compound powders were dissolved in 100% DMSO to make 10 mM stock solutions, which were stored at -20° C. in the dark.
2: Kinase Reaction Process
(1) Preparation of 1 × Kinase buffer.
(5) After centrifugation at 1000 rpm for 30 seconds, the reaction plate was shaken to mix well and incubated at room temperature for 10 min.
(6) A 5/3-fold final concentration of a mixed solution of ATP and Kinase substrate 2 was prepared with 1 × Kinase buffer.
(7) 15 µL of the mixed solution of ATP and substrate with 5/3-fold final concentration was added to start the reaction.
(8) The 384-well plate was centrifuged at 1000 rpm for 30 seconds, shaken to mix well, and incubated at room temperature for 10 min.
(9) 30 µL of a stop solution was added to stop the kinase reaction, and after centrifugation at 1000 rpm for 30 seconds, the plate was shaken to mix well;
(10) The conversion rate was read with Caliper EZ Reader.
where Conversion%_sample indicates the conversion rate reading of the sample; Conversion%_min is the average reading of the negative control wells, representing the conversion rate reading of the wells without enzyme activity; Conversion%_max is the average reading of the ratio of the positive control wells, representing the conversion rate reading of the wells without compound inhibition.
Dose-Response Curve Fitting
With the log value of the concentration as the X-axis, and the percentage inhibition rate as the Y-axis, the dose-effect curve was fitted using the log(inhibitor) vs. response-Variable slope of the analysis software GraphPad Prism 5, so as to determine the IC50 value of each compound on the enzyme activity.
The calculation formula was: […]

The nature of data set [2]: Pharmacokinetic test, oral, SD rats. The format is in vivo. The settings on record: oral 10 mg/kg, plasma; for Cmax: read-out: Cmax. The protocol: Each test compound was administered orally (10 mg/kg, 3 rats in each group) to SD rats for pharmacokinetic study. […] Animals were fasted overnight before oral administration, and fed again after 4 h of administration. […] At each collection time point, 3 whole blood samples were collected at a the collection volume of about 0.2-0.3 mL. […] The collected plasma was stored at -20° C. before analysis. 20 µL of plasma sample was added into a 1.6 mL 96-well deep-well plate, added with 200 µL of working internal standard solution (the same volume of vehicle was added to the blank instead of internal standard), vortexed for 1 min, and centrifuged at 5800 rpm for 10 min. 100 µL of the supernatant was added to a 96-well injection plate for LC-MS/MS analysis.

A word on the IC50: it is the concentration that inhibits the measured activity by half. Low values mean greater potency, high ones weaker potency. For orientation: AUC(0-inf) means total exposure, with the tail of the curve extrapolated. The Cmax is the highest concentration seen after dosing.

Sequence of BTK wild-type kinase (Q06187 whole entry): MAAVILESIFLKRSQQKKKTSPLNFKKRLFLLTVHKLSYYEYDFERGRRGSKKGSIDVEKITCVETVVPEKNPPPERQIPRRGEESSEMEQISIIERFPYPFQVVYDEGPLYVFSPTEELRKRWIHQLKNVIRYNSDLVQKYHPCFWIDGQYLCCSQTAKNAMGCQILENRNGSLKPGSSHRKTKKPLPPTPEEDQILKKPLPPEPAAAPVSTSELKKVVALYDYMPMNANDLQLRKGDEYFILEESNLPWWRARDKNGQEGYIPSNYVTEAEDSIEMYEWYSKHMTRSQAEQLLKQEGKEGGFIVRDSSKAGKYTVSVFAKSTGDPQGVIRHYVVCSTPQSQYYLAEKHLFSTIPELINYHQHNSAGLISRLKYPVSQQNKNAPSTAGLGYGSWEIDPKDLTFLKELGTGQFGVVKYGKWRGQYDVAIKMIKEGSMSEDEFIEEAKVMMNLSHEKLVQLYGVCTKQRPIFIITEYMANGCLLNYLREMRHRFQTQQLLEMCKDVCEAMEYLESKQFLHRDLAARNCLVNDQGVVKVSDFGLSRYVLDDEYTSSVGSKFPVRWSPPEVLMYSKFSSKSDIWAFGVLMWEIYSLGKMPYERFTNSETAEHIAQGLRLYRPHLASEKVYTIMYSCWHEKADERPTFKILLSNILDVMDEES

In the case of `COc1ccccc1C(=O)NCc1ccc(-c2nn(C3CCC(CO)OC3)c3ncnc(N)c23)cc1` (single isomer, unassigned) [Compound 60-B], in data set [1], the IC50 lay in the range of 20 to 100 nM. Besides, in data set [2], the “Cl” value turned out to be 188.82 mL/min/kg. Also, in data set [2] (rat), the AUC(0-inf) worked out at 889 ng·h/mL and the Cmax was found to be 946 ng/mL. For the same compound, the half-life in data set [2] (rat, read-out: T½ (converted)) is 2.89 h.

In data set [1], `Cc1ccc(Oc2ccc(-c3nc(C4CCC(CO)OC4)n4ccnc(N)c34)cc2)cc1` (stereo not drawn) [Compound 78] came in with an IC50 of 20 to 100 nM. Same read-out and setting: with `COc1cccc(NC(=O)c2ccc(-c3nc(C4CCC(CO)OC4)n4ccnc(N)c34)cc2)c1F` (stereo not drawn) [Compound 79] the figure was greater than 1000 nM; with `Nc1nccn2c(C3CCC(CO)OC3)nc(-c3cnc(Oc4cccc(Cl)c4)nc3)c12` (stereo not drawn) [Compound 81], greater than 1000 nM; with `COc1cccc(Oc2ccc(-c3nc(C4COC5C(O)COC45)n4ccnc(N)c34)cc2)c1F` (stereo not drawn) [Compound 82], 20 to 100 nM.

With `Nc1nccn2c(C3COC4C(O)COC34)nc(-c3ccc(C(=O)Nc4ccccn4)cc3)c12` (stereo not drawn) [Compound 83], in data set [1], the IC50 was 100 to 1000 nM. Still for that read-out and setting: the figure for `Nc1nccn2c(C3CCC(CO)OC3)nc(-c3ccc(Oc4ccc5c(c4F)OCC5)cc3)c12` (stereo not drawn) [Compound 84] is 20 to 100 nM; for `Nc1nccn2c(C3CCC(CO)OC3)nc(-c3ccc(Oc4ccc5c(c4F)OCO5)cc3)c12` (stereo not drawn) [Compound 85] it is 100 to 1000 nM; for `Nc1nccn2c(C3CCC(CO)OC3)nc(-c3ccc(C(=O)Nc4nccc(C(F)(F)F)c4F)cc3)c12` (stereo not drawn) [Compound 86] it is 100 to 1000 nM. In data set [1], `Nc1nccn2c(C3CCC(CO)OC3)nc(-c3ccc(C(=O)Nc4ncccc4F)cc3)c12` (stereo not drawn) [Compound 87] yielded an IC50 of 100 to 1000 nM. The same measure, in the same setting: the figure for `COc1ccccc1Oc1ccc(-c2nc(C3CCC(CO)OC3)n3ccnc(N)c23)cc1` (stereo not drawn) [Compound 88] is 20 to 100 nM; for `COc1cccc(Oc2ccc(-c3nc(C4CCC(CO)OC4)n4ccncc34)cc2)c1F` (stereo not drawn) [Compound 90] it is 20 to 100 nM; for `Cc1cccc(Oc2ccc(-c3nc(C45CCC(CO)(CC4)OC5)n4ccnc(N)c34)cc2)c1F` [Compound 92] it is less than 5 nM. Compound `Nc1nccn2c(C34CCC(CO)(CC3)OC4)nc(-c3ccc(Oc4cccc(C(F)(F)F)c4F)cc3)c12` [Compound 93] gave a half-maximal inhibitory concentration (IC50) in data set [1] of 5 to 20 nM.

In data set [1], `Nc1nccn2c(C34CCC(CO)(CC3)OC4)nc(-c3ccc(Oc4cccc(Cl)c4F)cc3)c12` [Compound 94] returned an IC50 of 5 to 20 nM. On the same count and under the same terms, with `Nc1nccn2c(C34CCC(CO)(CC3)OC4)nc(-c3ccc(Oc4cccc(OC(F)(F)F)c4F)cc3)c12` [Compound 95] the figure was 5 to 20 nM; with `COc1ccc(C#N)c(Oc2ccc(-c3nc(C4CCC(CO)OC4)n4ccnc(N)c34)cc2)c1` (stereo not drawn) [Compound 96], 20 to 100 nM.

Take `Cc1cccnc1NC(=O)c1ccc(-c2nc(C3CCC(CO)OC3)n3ccnc(N)c23)cc1` (stereo not drawn) [Compound 97]: the IC50 in data set [1] is 100 to 1000 nM. In the case of `COc1cccc(Oc2ccc(-c3nc(C4CCC(CO)OC4)n4ccnc(N)c34)c(F)c2)c1C#N` (stereo not drawn) [Compound 98], the IC50 in data set [1] is less than 5 nM. Turning to `NC(=O)c1ccccc1C(=O)c1ccc(-c2nc(C3CCC(CO)OC3)n3ccnc(N)c23)cc1` (stereo not drawn) [Compound 99], the IC50 in data set [1] is greater than 1000 nM. On the same count and under the same terms, the figure for `COc1cccc(Oc2ccc(-c3nc(C4CCC(CO)OC4)n4c(Cl)cnc(N)c34)cc2)c1C#N` (stereo not drawn) [Compound 100] is less than 5 nM; for `Nc1nccn2c(C3CCC(CO)OC3)nc(-c3ccc(C(=O)c4ccc(Cl)cc4)cc3)c12` (stereo not drawn) [Compound 102] it is 20 to 100 nM; for `COc1cccc(Oc2ccc(-c3nc(C4CCC(CO)OC4)n4ccnc(N)c34)cc2)n1` (stereo not drawn) [Compound 104] it is 5 to 20 nM. The same measure, in the same setting: the figure for `Nc1nccn2c(C3CCC(CO)OC3)nc(-c3ccc(C(=O)Nc4cc(C(F)(F)F)ccn4)cc3F)c12` (stereo not drawn) [Compound 105] is less than 5 nM. Same read-out and setting: with `CNC(=O)c1cc(Oc2ccc(-c3nc(C4CCC(CO)OC4)n4ccnc(N)c34)cc2)ccn1` (stereo not drawn) [Compound 107] the figure was 100 to 1000 nM; with `Nc1ncnc2c1c(-c1ccc(C(=O)Nc3ccccn3)cc1)nn2C1CCC(CO)OC1` (stereo not drawn) [Compound 108], 5 to 20 nM; with `Nc1ncc(Cl)n2c(C3CCC(CO)OC3)nc(-c3ccc(C(=O)Nc4cc(C(F)(F)F)ccn4)cc3)c12` (stereo not drawn) [Compound 110], less than 5 nM. In data set [1], `COc1cccc(Oc2ccc(-c3nc(C45CCC(CO)(CC4)OC5)n4ccnc(N)c34)cc2)c1C(F)(F)F` [Compound 112] gave an IC50 of 5 to 20 nM. `Nc1nccn2c(C3CCC(CO)OC3)nc(-c3ccc(C(F)(F)c4ccccc4)cc3F)c12` (stereo not drawn) [Compound 113] returned an IC50 in data set [1] of 5 to 20 nM. Still for that read-out and setting: with `Nc1nccn2c(C34CCC(CO)(CC3)OC4)nc(-c3ccc(C(F)(F)c4ccccc4)cc3F)c12` [Compound 114] the figure was 5 to 20 nM; with `COc1cccc(Oc2ccc(-c3nc(C45CCC(CO)(CC4)OC5)n4ccnc(N)c34)c(F)c2)c1C#N` [Compound 115], less than 5 nM; with `Nc1nccn2c(C34CCC(CO)(CC3)OC4)nc(-c3ccc(C(=O)Nc4cc(C(F)(F)F)ccn4)cc3F)c12` [Compound 117], less than 5 nM. Same read-out and setting: the figure for `COc1cccc(Oc2ccc(-c3nc(C45CCC(CO)(CC4)OC5)n4c(Cl)cnc(N)c34)cc2)c1C#N` [Compound 122] is less than 5 nM; for `COc1cccc(C(F)(F)c2ccc(-c3nc(C4CCC(CO)OC4)n4ccnc(N)c34)cc2)c1C#N` (stereo not drawn) [Compound 123] it is 20 to 100 nM; for `COc1cccc(C(F)(F)c2ccc(-c3nc(C4CCC(CO)OC4)n4ccnc(N)c34)cc2)c1F` (stereo not drawn) [Compound 126] it is 5 to 20 nM. The same measure, in the same setting: with `Nc1nccn2c(C3CCC(CO)OC3)nc(-c3ccc(C(F)(F)c4cccc(F)c4F)cc3)c12` (stereo not drawn) [Compound 127] the figure was 5 to 20 nM. Compound `Nc1ncc(Cl)n2c(C34CCC(CO)(CC3)OC4)nc(-c3ccc(C(=O)Nc4cc(C(F)(F)F)ccn4)cc3)c12` [Compound 128] yielded an IC50 in data set [1] of less than 5 nM.

For the compound `COc1cccc(C(F)(F)c2ccc(-c3nc(C45CCC(CO)(CC4)OC5)n4ccnc(N)c34)cc2)c1F` [Compound 129], in data set [1], the IC50 was in the range of 5 to 20 nM. Take `Nc1nccn2c(C34CCC(CO)(CC3)OC4)nc(-c3ccc(C(F)(F)c4cccc(F)c4F)cc3)c12` [Compound 130]: the IC50 in data set [1] was 5 to 20 nM. The compound `CC(C)(c1ccccc1)c1ccc(-c2nc(C3CCC(CO)OC3)n3ccnc(N)c23)cc1` (stereo not drawn) [Compound 131] gave an IC50 in data set [1] greater than 1000 nM. For `COc1cccc(C(F)(F)c2ccc(-c3nc(C45CCC(CO)(CC4)OC5)n4ccnc(N)c34)cc2)c1` [Compound 132], the IC50 in data set [1] lay within 20 to 100 nM.

In the case of `Nc1nccn2c(C3CCC(CO)OC3)nc(-c3ccc(C(=O)Nc4ccccc4F)cc3)c12` (stereo not drawn) [Compound 133], the IC50 in data set [1] was in the range of 100 to 1000 nM. Regarding `COc1cccc(Oc2ccc(-c3nc(C4CCC(CO)OC4)n4c(C)cnc(N)c34)cc2)c1F` (stereo not drawn) [Compound 134], the IC50 in data set [1] was 5 to 20 nM.

`N#Cc1ccnc(NC(=O)c2ccc(-c3nc(C45COC(CO)(C4)C5)n4ccnc(N)c34)cc2)c1` [Compound 135] displayed an IC50 in data set [1] of 5 to 20 nM. On the same count and under the same terms, the figure for `Nc1nccn2c(C34COC(CO)(C3)C4)nc(-c3ccc(C(=O)Nc4cc(C(F)(F)F)ccn4)cc3)c12` [Compound 136] is 5 to 20 nM; for `COc1cccc(Oc2ccc(-c3nc(C45COC(CO)(C4)C5)n4ccnc(N)c34)cc2)c1C#N` [Compound 137] it is 5 to 20 nM; for `Nc1nccn2c(C34COC(CO)(C3)C4)nc(-c3ccc(C(F)(F)c4ccccc4)cc3)c12` [Compound 138] it is 20 to 100 nM. `Nc1nccn2c(C34CCC(CO)(CC3)OC4)nc(-c3ccc(C(F)(F)c4ccc(F)c(Cl)c4)cc3)c12` [Compound 140] showed an IC50 in data set [1] of 100 to 1000 nM. Consider `Nc1nccn2c(C34CCC(CO)(CC3)OC4)nc(-c3ccc(C(F)(F)c4ccc(F)cc4)cc3)c12` [Compound 141], for which the IC50 in data set [1] lay within 100 to 1000 nM.

Take `Nc1nccn2c(C34CCC(CO)(CC3)OC4)nc(-c3ccc(C(F)(F)c4cccc(F)c4)cc3)c12` [Compound 142]: the half-maximal inhibitory concentration (IC50) in data set [1] is 100 to 1000 nM. The same measure, in the same setting: with `Nc1nccn2c(C34CCC(CO)(CC3)OC4)nc(-c3ccc(C(F)(F)c4cccc(C5CC5)c4)cc3)c12` [Compound 143] the figure was 20 to 100 nM. For `C=CC(=O)N1CCC[C@@H](n2nc(-c3ccc(Oc4ccccc4)cc3)c3c(N)ncnc32)C1` [Ibrutinib, reference compound], in data set [2] (rat), the AUC(0-inf) is 362 ng·h/mL and the peak concentration (Cmax) came to 222 ng/mL.

For the origin of these results see patent US20230364079A1, “COMPOUND AS BRAIN-PERMEABLE BTK OR HER2 INHIBITOR, PREPARATION METHOD THEREFOR, AND USE THEREOF” (CHENGDU HYPERWAY PHARMACEUTICALS CO., LTD., priority 2020, published 2023).
